The values that follow come from patent publication US7736537B1, “Replacement solvents having improved properties for refrigeration flushes” (Mainstream Engineering Corp., priority 2008, dated 2010).

For series [1] the following is noted: cited from earlier work.
Series [2] can be described thus: Test 3 - Acid retention (titration before and after concentrated HCl). Format: physicochemical. How it is done: In order to measure the ability of each solvent to absorb acid, a titration of each solvent before and after concentrated HCl addition was performed. The difference between how much titrant was needed to neutralize the solvent after the addition of acid and the amount of titrant needed to neutralize the initial solvent was a simple way to determine how much acid was absorbed by each solvent. Mixture A advantageously absorbed more mineral acid than any of the three comparative solvents.

Series [3] in a line: Test 4 - Oil retention (oil saturation point). Type of series: physicochemical. As to conditions: oil added to 4.5 g solvent until phase separation. How it is done: An oil absorption test was performed on Mixtures A, B, C, D and the three comparative solvents to see if there was a saturation point associated with any of the solvents. A 4.5 g sample of each solvent was put into a vial and oil was added to each until a phase separation or other noticeable fluid property change took place. […]. Rx-11 and oil phase separated after 0.45 g, or 10 mass % of oil were added.

The nature of series [4]: Test 2 - Moisture retention (Karl Fischer titration). Format: physicochemical. How it is done: Each solvent (5 g) was put into a small vial and the individual samples were titrated with a Karl Fischer titration machine to evaluate how much moisture was contained in each. De-ionized water (1 g) was then added to each vial, which ensured that each sample was saturated with moisture. The samples were then agitated and allowed to phase separate. Karl Fischer analysis of the organic layer of each solvent was performed after phase separation was complete.
The difference between the saturated moisture percent and the starting sample moisture percent is the amount that was absorbed by the solvent.

Usually boiling point stands for the temperature of boiling at a given pressure. On to `FC(Cl)(Cl)Cl` [CFC-11, trichlorofluoromethane], for which, in series [1], the boiling point is 47.6 °C. The “Acid Number after acid” value in series [2] (after concentrated HCl addition) is listed as 18 mg/L. Further, the “Acid Number before acid” value in series [2] (before concentrated HCl addition) came to 9 mg/L. In addition, the “Acid Absorbed” value in series [2] (difference after minus before acid) is reported as 9 mg/L. The “saturation point for oil” value in series [3] is “no saturation point”. This compound came in with a Saturated % in series [4] (moisture in organic layer after 1 g water added to 5 g solvent) of 0.007%. Moreover, the Starting % in series [4] (moisture in solvent before water addition) worked out at 0.000%.
